Test [1] has as its target T1, human peptide transporter-1 (PEPT1) (Homo sapiens, UniProt P46059).
T1 sequence (P46059 1-708): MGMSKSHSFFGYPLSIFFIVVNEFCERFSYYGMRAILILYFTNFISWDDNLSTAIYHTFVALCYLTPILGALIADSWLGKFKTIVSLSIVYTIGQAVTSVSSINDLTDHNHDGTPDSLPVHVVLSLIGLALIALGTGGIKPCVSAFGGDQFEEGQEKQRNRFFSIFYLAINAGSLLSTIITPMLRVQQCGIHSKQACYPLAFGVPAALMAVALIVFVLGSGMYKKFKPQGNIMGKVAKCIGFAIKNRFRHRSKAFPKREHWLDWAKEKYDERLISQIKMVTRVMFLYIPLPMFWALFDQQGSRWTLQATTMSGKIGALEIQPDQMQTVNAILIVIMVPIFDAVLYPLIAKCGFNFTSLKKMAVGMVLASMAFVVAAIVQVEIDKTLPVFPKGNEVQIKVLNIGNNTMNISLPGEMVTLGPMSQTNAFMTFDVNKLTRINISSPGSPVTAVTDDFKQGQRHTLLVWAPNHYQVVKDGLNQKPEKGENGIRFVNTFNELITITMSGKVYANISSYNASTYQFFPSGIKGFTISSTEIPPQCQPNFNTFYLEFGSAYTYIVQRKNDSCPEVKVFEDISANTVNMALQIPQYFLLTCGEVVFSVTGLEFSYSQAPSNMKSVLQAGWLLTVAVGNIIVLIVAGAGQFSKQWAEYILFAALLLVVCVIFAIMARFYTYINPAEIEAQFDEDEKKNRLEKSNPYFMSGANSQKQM
The test is described as follows: inhibition of radiolabeled Gly-Sar uptake in transfected CHO cells. The format is cell-based.

The next test concerns the target T2, PEPT2 (Homo sapiens, UniProt Q16348).
T2 sequence (Q16348 1-729): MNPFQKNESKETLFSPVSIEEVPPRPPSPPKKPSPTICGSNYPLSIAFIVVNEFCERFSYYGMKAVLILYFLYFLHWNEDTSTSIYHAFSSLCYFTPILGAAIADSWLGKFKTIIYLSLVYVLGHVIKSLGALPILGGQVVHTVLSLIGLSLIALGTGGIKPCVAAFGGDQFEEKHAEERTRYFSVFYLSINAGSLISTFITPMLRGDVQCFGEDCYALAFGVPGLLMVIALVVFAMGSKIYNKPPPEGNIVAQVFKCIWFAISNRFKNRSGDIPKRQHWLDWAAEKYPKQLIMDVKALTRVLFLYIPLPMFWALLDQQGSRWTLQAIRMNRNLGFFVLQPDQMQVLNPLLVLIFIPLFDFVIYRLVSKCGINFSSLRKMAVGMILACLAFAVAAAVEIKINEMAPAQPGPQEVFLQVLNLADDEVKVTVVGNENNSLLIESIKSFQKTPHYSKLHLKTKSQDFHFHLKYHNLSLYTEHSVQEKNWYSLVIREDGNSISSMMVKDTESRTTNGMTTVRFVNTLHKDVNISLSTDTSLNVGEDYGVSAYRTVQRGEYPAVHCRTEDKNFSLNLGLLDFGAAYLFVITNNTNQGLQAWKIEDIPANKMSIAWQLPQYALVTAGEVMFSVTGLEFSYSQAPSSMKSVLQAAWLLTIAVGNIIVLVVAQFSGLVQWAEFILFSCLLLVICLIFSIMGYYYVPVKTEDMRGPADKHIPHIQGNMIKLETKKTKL
Described as above. The format is cell-based.

pIC50: −log10 of the molar value.

From publication PMC2898170 (Neuropsychiatric Disease and Treatment, 2010) come the findings set out here.

Consider `C[C@@H](Cc1ccccc1)NC(=O)[C@@H](N)CCCCN` [lisdexamfetamine dimesylate], for which the figures for the pIC50 (in test [1]; on PEPT2) were approximately 2.40 and 3.61, respectively.
